Read-outs that look alike come from different tables or passages of the source.
Columns and labels:
P450 4A11 [1] = molecular target: T1, P450 4A11 (Homo sapiens, UniProt Q02928); assay type: binding; parameters: made in house; host or cells: E. coli; settings: for substrate transfer rate from FABP1 to P450 4A11: FABP1, DAUDA, palmitate 0.2 μM each, P450 4A11 2 μM
T1 sequence (Q02928 5-519): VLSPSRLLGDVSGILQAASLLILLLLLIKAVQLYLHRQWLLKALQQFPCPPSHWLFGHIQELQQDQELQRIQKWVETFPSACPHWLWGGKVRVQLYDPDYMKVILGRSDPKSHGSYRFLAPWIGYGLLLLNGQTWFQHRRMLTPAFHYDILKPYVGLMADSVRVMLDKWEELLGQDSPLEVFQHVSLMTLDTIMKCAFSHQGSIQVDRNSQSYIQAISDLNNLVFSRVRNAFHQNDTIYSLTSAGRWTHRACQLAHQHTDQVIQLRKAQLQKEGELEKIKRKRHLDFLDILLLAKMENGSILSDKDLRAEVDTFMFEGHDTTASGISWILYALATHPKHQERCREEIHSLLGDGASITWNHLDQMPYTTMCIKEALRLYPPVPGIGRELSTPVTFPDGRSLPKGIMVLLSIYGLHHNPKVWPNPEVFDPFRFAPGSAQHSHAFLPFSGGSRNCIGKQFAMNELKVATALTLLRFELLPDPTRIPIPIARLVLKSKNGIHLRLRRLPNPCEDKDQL
Protocol: Set up as a reverse experiment of the fluorescence displacement assay (Fig. 5), this experiment involved mixing equimolar concentrations (0.2 μM) of DAUDA, FABP1, and palmitate to form a solution ( FDS↔FD+S↔FS+D ) with low fluorescence (Fig. 5A). That solution was then rapidly mixed with an excess of P450 4A11 (2 μM), and the gain of fluorescence was monitored (i.e., as substrate was transferred from FABP1 to P450, either as FDS + P450 → FD + P450-S or as FS + P450 + D → P450-S + F + D → FD; Fig. 5A). As expected, we observed a weak but reproducible stimulation of fluorescence in this experiment (n = 6 shots), and the data were fit to single exponential equation yielding a substrate transfer rate (k6) of 4.2 ± 0.9 s^−1 (Fig. 11).
Figure 11 Rate of palmitate transfer (ktransfer) from FABP1 to P450 4A11. A stoichiometric mixture of FABP1, DAUDA, and palmitate (0.2 μM) was mixed with P450 4A11 (2 μM), and the gain of fluorescence (>420 nm) was monitored (i.e., as FDS + E → FD + ES, Fig. 5A). Six traces were averaged and fit to a single exponential equation, yielding a rate of 4.2 ± 0.9 s^−1. […] replicate experiments were averaged to generate the trace. DAUDA, 11-dansylaminoundecanoic acid; FABP1, fatty acid binding protein.
To estimate the rate of transfer of palmitate from FABP1 to P450 4A11, a mixture of palmitate, FABP1, and DAUDA (0.4 μM, each component) was mixed against a solution of P450 4A11 (4 μM). All components were diluted twofold to their final concentrations in the mixing process. The experiment was performed with stopped-flow parameters identical to the experiments of FABP1 with lipids (aforementioned), and data were processed in the same manner, with the exception that a smoothing factor of 0.4 was applied to the data (in Microsoft Excel) prior to curve fitting.

P450 4A11 [2] = molecular target: T1, P450 4A11; assay: Equilibrium binding titrations of P450 4A11 with lipids (heme Soret spectral shift); settings: for P450 heme Soret spectral shift induced: P450 4A11
Protocol: Affinity of palmitate and 16-OH palmitate for P450 4A11 (1 μM) was assessed by monitoring the blue shift (from ∼420 nm to ∼390 nm) of the P450 heme Soret band as a substrate binds and displaces the sixth axial heme ligand (H2O) to yield pentacoordinated heme (“type I” shift) ([26]).
P450 4A11 (1 μM) was titrated with (A) palmitate and (B) 16-OH palmitate in a 1.0 cm pathlength cell. Difference plots were calculated from absorbance maxima (∼390 nm) and minima (∼420 nm), and the data were fit to a hyperbolic equation. The insets in each panel are the difference spectra between a cuvette that received the lipid substrate and a cuvette that received solvent alone. Each data point corresponds to one independent replicate.
Equilibrium binding titrations with P450 4A11 (1 μM) were performed in buffer (100 mM potassium phosphate [pH 7.4]) as described previously ([44], [56]). Briefly, a baseline was first acquired on an OLIS-Cary 14 spectrophotometer set to scan from 350 to 500 nm in 1 cm glass cuvettes. […] The cuvettes were mixed with a plumper after additions, and spectra were recorded. The spectra were exported into Microsoft Excel software, and the absorbance values at 418 nm were subtracted from those at 390 nm and the values were plotted as a function of lipid concentration.
Titration of P450 4A11 with DAUDA. The P450 concentration was 1 µM and the DAUDA concentration was varied using a geometric series from 1 nM to 10 µM. […] The increase in absorbance in the UV region is due to the strong chromophore in the DAUDA dansyl moiety (Fig. S8).

P450 4A11 [3] = test system: P450 4A11; parameters: species or system human
From the text: To predict the potential effects of FABP1 on P450 4A11 catalysis, we programmed two computational models in KinTek Explorer to reflect those presented in Figure 2 (i.e., free ligand model versus direct transfer model). The models were equipped with the rate constants and/or Kd values estimated for either palmitate or DAUDA (where applicable) and for protein–protein binding, which are summarized in Table 2. As is indicated in Table 2, certain rate constants necessary for the modeling are estimated based on a known Kd value and an individual known rate constant. To predict the kinetic result of the free ligand model, the rate(s) of transfer (k6, k-6) were set to a value of zero, reflecting the predicted inability of the two proteins to interact. The interaction of P450 and FABP1 occurs in the absence of substrate, although whether the P450–FABP1 (EF) complex can accept a substrate (to form EFS) is unknown. The modeling software estimated a 1 µM Kd value for the interaction with the assumption that the complex could not accept a cytosolic substrate. To predict the kinetic result of the direct transfer model, our experimentally estimated rates of transfer were allowed to be fit by the model. Aside from the manipulations with the transfer rate, all remaining rate constants were input as they appear in Table 2.
When provided the experimental conditions for the kinetic assays in Figure 12, the free ligand model predicted that the rate of P450 catalysis decreases rapidly as the concentration of FABP1 approaches the concentration of substrate in the experiment (Fig. 12A, blue line), which is intuitive (given the difference in palmitate binding affinities; Table 1, Table 2 and 2). Provided the same conditions, the direct transfer model predicted a slight attenuation of P450 activity (as the concentration of FABP1 approaches the total concentration of substrate (S)), which yielded an excellent fit to our experimental data when a rate of P450 catalysis of 0.11 s^−1 was used (Fig. 12A, red line). […] In a separate experiment, the free ligand model similarly predicted that P450 activity would not be observed when the concentration of substrate was below the concentration of FABP1 (Fig. 12B, blue line). The direct transfer model predicted a hyperbolic product distribution (for [S] < [FABP1]) and gave a satisfactory fit to the experimental data when the same rates of ES^′→ES described earlier were used, but the rate of P450 catalysis was reduced 20-fold (to 0.005 s^−1) (Fig. 12B, red line).
Data were imported into KinTek Explorer software (version 11.01; KinTek, https://kintekcorp.com/software) ([76]) as Excel txt files and processed using an Apple computer (operating system 11.6.2, Apple). The kinetic modeling of a binding titration of FABP1 with palmitate (Fig. S13) as well as the txt files used for all kinetic modeling are provided in the Supporting Information.

Q: How did the “substrate transfer rate from FABP1 to P450 4A11” value (P450 4A11 [1]) turn out when `CCCCCCCCCCCCCCCC(=O)O` [Palmitate (C16), palmitate] was run?
A: Its value is 4.2 ± 0.9 s⁻¹.

Q: And the Kd (P450 4A11 [2])?
A: Its Kd is 5200 ± 1600 nM.

Q: And the “P450 heme Soret spectral shift induced” value (P450 4A11 [2]; listed as Palmitate)?
A: Its value is “classical type I spectral shift”.

Q: And the “P450 heme Soret spectral shift induced” value (P450 4A11 [2]; listed as palmitate)?
A: Its value is “type I”.

Q: What about the “reduction of rate of P450 catalysis, Fig. 12B vs Fig. 12A model” value (P450 4A11 [3]) of the same compound?
A: Its value is 20 fold.

Q: And the “forward rate of ES′→ES conformational transition” value (P450 4A11 [3]; direct transfer model)?
A: Its value is 0.086 s⁻¹.

Q: What about the “reverse rate of ES′→ES conformational transition” value (P450 4A11 [3]; direct transfer model) of the same compound?
A: The value was 0.013 s⁻¹.

Q: And the “rate of P450 catalysis used in direct transfer model” value (P450 4A11 [3]; fit to Fig. 12A (FABP1 varied, palmitate 5 μM))?
A: The value was 0.11 s⁻¹.

Q: And the “rate of P450 catalysis used in direct transfer model” value (P450 4A11 [3]; fit to Fig. 12B (palmitate varied, FABP1 5 μM))?
A: The value was 0.005 s⁻¹.

Q: With “FABP1: delipidated recombinant liver fatty acid binding protein with C-terminal hexahistidine tag” as the compound, how does the “rate of transfer to P450 4A11 relative to transfer to phospholipid membranes” value (P450 4A11 [1]) read?
A: The value was ~1000 fold.

Q: What about the “substrate transfer rate from FABP1 to P450 4A11” value (P450 4A11 [1]) of the same compound?
A: Its value is ~5 s⁻¹.

Q: What about the Kd (P450 4A11 [3]) of the same compound?
A: Its Kd is 1000 nM.

Q: `O=C(O)CCCCCCCCCCCCCCCO` [16-OH Palmitate (C16), 16-hydroxypalmitate] was tested. Which “P450 heme Soret spectral shift induced” value (P450 4A11 [2]) did it give?
A: Its value is “reverse type I shift”.

Q: And the Kd (P450 4A11 [2]; read-out: Kd for P450 4A11, P450 4A11 1 μM, 100 mM potassium phosphate pH 7.4)?
A: Its Kd is 270 ± 40 nM.

Source: publication PMC11847541, “Liver fatty acid binding protein FABP1 transfers substrates to cytochrome P450 4A11 for catalysis” (The Journal of Biological Chemistry, 2025)
